From patent US20250074919A1, “Heteroaryl compounds as inhibitors of irak4, compositions and applications thereof” (Accro Bioscience (HK) Limited, priority 2021, published 2025)

Experiments:
[1] = Metabolic stability in dog liver microsomes; assay type: in vitro ADME, Beagle Dog; details: for half-life: Beagle dog liver microsomes, NADPH, 37° C., read-out: Dog microsome (t1/2)
Description: (§1) The appropriate concentrations of microsomes working solutions (0.56 mg/mL) were prepared in potassium phosphate buffer. The test compounds were incubated with Human, SD Rat, CD-1 Mouse and Beagle Dog liver microsomes for 10 min at 37° C. with constant shaking. The reaction was initiated by the addition of nicotinamide adenine dinucleotide phosphate (NADPH) cofactor after a 10 min pre-incubation. At 5, 15, 30, 45, and 60 min, the samples were taken and placed into the stop solution (Cold acetonitrile containing 200 ng/mL tolbutamide and 200 ng/mL labetalol as internal standards). All sampling plates were shaken for 10 min, then centrifuged at 4000 rpm for 20 minutes at 4° C. Each supernatant of bioanalysis plate was sealed and shaken for 10 minutes prior to LC-MS analysis.

[2] = Metabolic stability in rat liver microsomes; assay type: in vitro ADME, SD Rat; details: for half-life: SD rat liver microsomes, NADPH, 37° C., read-out: Rat microsome (t1/2)
Description: as §1

IRAK4 [3] = molecular target: T1, IRAK4 (Homo sapiens (Human), UniProt Q9NWZ3); test: Screening the compounds against IRAK4 with ATP (Caliper, FAM-labeled peptide); assay type: biochemical; details: for IC50: read-out: IC50 (nM) (10 μM ATP), IRAK4 kinase, 10 μM ATP
Procedure, shortened: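 Enzyme preincubated with compound 10 min at room temperature in 50 mM HEPES pH 7.5, 0.0015% Brij-35; reaction started with FAM-labeled peptide and ATP at 28° C, stopped with EDTA.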

[4] = Pharmacokinetics study in ICR mice; assay type: in vivo; details: for clearance rate (in words) / half-life (in words) / oral absorption (in words) / oral exposure and bioavailability (in words): mice; for clearance rate (in words) / half-life (in words): administered intravenously; for oral absorption (in words) / oral exposure and bioavailability (in words): oral administration; for Vd / clearance / half-life / AUC / bioavailability / Cmax / Tmax: mouse, plasma, male ICR mice; for AUC: zero to 24 hours; for bioavailability: oral, p.o.: 10 mg/kg vs i.v.: 2 mg/kg
Description: Solution used:10% DMSO+10% Solutol+80% (20% Hp-β-CD)
Single dose pharmacokinetic parameters were determined at Medicilon using male ICR mice (3 […] per group, 2 groups). Groups were dosed i.v. (2 mg/kg) or p.o. (10 mg/kg) and blood samples were taken via submandibular or saphenous vein at the following time points post dosing: 0.083 (i.v. only), 0.25, 0.5, 1, 2, 4, 6 (p.o. only), 8 and 24 h. An aliquot of 50 μL of blood plasma was protein precipitated with 250 μL internal standard solution (200 ng/mL tolbutamide in MeOH), the mixture was vortex-mixed for 1 min and centrifuged at 14,000 rpm for 5 min. The concentration of the test compound in the plasma samples was determined using LC-MS/MS with the peak areas compared to a calibration curve determined using 5-5000 ng/mL test compound in ICR mice plasma. […] Cmax represents peak plasma concentration of the drug; Tmax represents the time to reach Cmax; T1/2 represents elimination half-life or the time taken for Cmax to drop in half; Cl represents clearance; Vd represents apparent volume of distribution; F represents bioavailability; p.o. represents oral administration; and i.v. represents intravenous injection.

IRAK4 [5] = molecular target: T1, IRAK4; test: Kinase binding ability (KINOMEscan site-directed competition binding assay); details: for Kd: Kd between IRAK4 and compound
Description: The Equilibrium dissociation constant reflected the test compound's kinase binding (Kd). The KINOMEscan, a site-directed competition binding assay, was used to measure interactions between test compounds and specific kinases. The kinase-tagged T7 phage strains were derived from the BL21 strain's E. coli host. T7 phage was used to infect E. coli, which was then incubated until lysis occurred. The remaining kinases were produced in HEK-293 cells and tagged with DNA. To create affinity resins for kinase, streptavidin-coated magnetic beads were treated with biotinylated small molecule ligands. The assay consists of three components: a DNA-tagged kinase, an immobilized ligand, and the test compound. An immobilized ligand could compete with the compound binding the kinase active site. The affinity beads were washed with wash buffer and re-suspended in elution buffer following reactions in a polypropylene 384-well plate. qPCR of the kinase-DNA tag was used to assess the test compound's ability to bind with the selected kinase. The assay was carried out in accordance with the manufacturer's instructions (Eurofins DiscoverX Corporation).
Binding constants (Kd) were calculated with a standard dose-response curve using the Hill equation: […]

[6] = Metabolic stability in mouse liver microsomes; assay type: in vitro ADME, CD-1 Mouse; details: for half-life: CD-1 mouse liver microsomes, NADPH, 37° C., read-out: Mouse microsome (t1/2)
Description: as §1

[7] = Metabolic stability in human liver microsomes; assay type: in vitro ADME; details: for half-life: NADPH, 37° C., read-out: Human microsome (t1/2)
Description: as §1

T1 sequence (Q9NWZ3 whole entry): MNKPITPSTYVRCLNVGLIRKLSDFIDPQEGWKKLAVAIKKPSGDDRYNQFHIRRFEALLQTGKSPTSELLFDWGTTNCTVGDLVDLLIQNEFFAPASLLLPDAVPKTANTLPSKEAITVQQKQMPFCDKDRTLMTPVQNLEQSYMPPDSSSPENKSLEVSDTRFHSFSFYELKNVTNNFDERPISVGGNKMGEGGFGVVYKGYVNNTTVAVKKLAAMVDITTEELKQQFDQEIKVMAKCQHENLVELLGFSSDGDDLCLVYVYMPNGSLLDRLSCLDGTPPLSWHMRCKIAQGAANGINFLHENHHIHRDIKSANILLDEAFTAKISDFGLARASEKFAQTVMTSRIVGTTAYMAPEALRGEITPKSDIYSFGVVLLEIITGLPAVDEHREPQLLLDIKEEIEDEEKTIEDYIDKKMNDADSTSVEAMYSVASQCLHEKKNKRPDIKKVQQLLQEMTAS

SMILES	half-life [1] [h]	metabolic stability in liver microsomes of dog (in words) [1]	half-life [2] [h]	metabolic stability in liver microsomes of rat (in words) [2]	IC50 (IRAK4 [3]) [nM]	clearance rate (in words) [4]	half-life (in words) [4]	oral absorption (in words) [4]	oral exposure and bioavailability (in words) [4]	Vd ([4]; iv, i.v.: 2 mg/kg) [L/kg]	clearance ([4]; iv, i.v.: 2 mg/kg) [mL/min/kg]	half-life ([4]; iv, i.v.: 2 mg/kg) [h]	AUC ([4]; iv, i.v.: 2 mg/kg) [ng·h/mL]	bioavailability [4] [%]	Cmax ([4]; po, p.o.: 10 mg/kg) [ng/mL]	Tmax ([4]; po, p.o.: 10 mg/kg) [h]	AUC ([4]; po, p.o.: 10 mg/kg) [ng·h/mL]	binding affinities to IRAK4 (in words) (IRAK4 [5])	Kd (IRAK4 [5]) [nM]	half-life [6] [h]	also measured
Cn1cc(-c2cccc(NC(=O)c3cc4c(nc3N3CCC(O)CC3)OC(C)(C)C4)n2)cn1 [Compound B5, 6-(4-Hydroxypiperidin-1-yl)-2,2-dimethyl-N-(6-(1-methyl-1H-pyrazol-4-yl)pyridin-2-yl)-2,3-dihydrofuro[2,3-b]pyridine-5-carboxamide]	> 2.42	good metabolic stability	> 2.42	good metabolic stability	7.6	low clearance rate	good half-life	well absorbed orally	extremely high oral exposure and bioavailability	3.6	13.6	3.1	2450	91	1460	2	9990	high binding affinities	0.69	1.18	metabolic stability in liver microsomes of mouse (in words) [6]: moderate metabolic stability; metabolic stability in liver microsomes of human (in words) [7]: good metabolic stability; half-life [7]: > 2.42 h
Cn1cc(-c2cccc(NC(=O)c3cc4oc(N5CCOCC5)nc4nc3N3CCC(O)CC3)n2)cn1 [Compound A4, 5-(4-hydroxypiperidin-1-yl)-N-(6-(1-methyl-1H-pyrazol-4-yl)pyridin-2-yl)-2-morpholinooxazolo[4,5-b]pyridine-6-carboxamide]	1.7	good metabolic stability	1.53	good metabolic stability	11	low clearance rate	good half-life	well absorbed orally	extremely high oral exposure and bioavailability	0.98	8.1	1.4	4050	130	8580	1.17	26400	high binding affinities	0.59	> 2.42	activity, times better than that of the positive control compound CA4948 (IRAK4 [3]; IRAK4 kinase inhibition relative to CA4948): more than 10 times; metabolic stability in liver microsomes of mouse (in words) [6]: good metabolic stability; metabolic stability in liver microsomes of human (in words) [7]: good metabolic stability; half-life [7]: > 2.42 h
